Assay results reported in the CheMixHub drug solubility set.

Test: xn = mol fraction of the nth substance listed, in the solute-free solvent

COc1cc2c(cc1OC)-c1cc3ccc(OC)c(OC)c3c[n+]1CC2.[Cl-] + OCCO + O
solubility (g/100 g solution)
Settings	283.15 K	288.15 K	293.15 K	298.15 K	303.15 K	308.15 K	313.15 K	318.15 K	323.15 K	328.15 K
x2 = 0.03125	1.2	1.46	1.83	2.28	2.8	3.39	4.08	4.86	5.75	6.75
x2 = 0.06767	1.25	1.51	1.89	2.35	2.88	3.48	4.19	4.98	5.89	6.91
x2 = 0.1107	1.33	1.6	1.99	2.47	3.02	3.65	4.37	5.2	6.13	7.19
x2 = 0.1622	1.41	1.69	2.09	2.58	3.15	3.8	4.55	5.4	6.36	7.45
x2 = 0.225	1.47	1.78	2.23	2.74	3.31	3.98	4.71	5.6	6.54	7.6
x2 = 0.3034	1.49	1.82	2.23	2.74	3.27	3.96	4.69	5.57	6.5	7.55
x2 = 0.4038	1.45	1.79	2.16	2.64	3.18	3.77	4.46	5.28	6.2	7.26
x2 = 0.5373	1.36	1.65	2.01	2.43	2.92	3.5	4.22	4.93	5.81	6.75
x2 = 0.7232	1.23	1.46	1.79	2.17	2.63	3.15	3.76	4.44	5.21	6.07

CCC(C)n1ncn(-c2ccc(N3CCN(c4ccc(OCC5COC(Cn6cncn6)(c6ccc(Cl)cc6Cl)O5)cc4)CC3)cc2)c1=O (stereo unspecified) + ClCCl + CCCO
solubility (g/100 g solution)
Settings	x2 = 0.07363	x2 = 0.1517	x2 = 0.2346	x2 = 0.3229	x2 = 0.417	x2 = 0.5176	x2 = 0.6254	x2 = 0.741	x2 = 0.8656
288.15 K	0.0545	0.15	0.459	1.65	3.95	8.85	14.4	19.5	21.8
293.15 K	0.0662	0.199	0.602	2.05	4.66	9.92	15.7	20.8	22.9
298.15 K	0.0798	0.258	0.786	2.52	5.51	11.1	17	22	24
303.15 K	0.0965	0.332	0.996	3.08	6.4	12.3	18.3	23.3	25.1
308.15 K	0.115	0.424	1.27	3.71	7.42	13.6	19.7	24.6	26.2

Cc1c(Br)cccc1C(=O)O + CN(C)C=O + O
solubility (g/100 g solution)
Settings	x2 = 0.039	x2 = 0.091	x2 = 0.16	x2 = 0.259	x2 = 0.411	x2 = 0.677
278.15 K	5.54	9.19	12.7	16.1	19.4	22.9
283.15 K	8.07	11.1	15.1	18.9	22.7	26.7
288.15 K	6.03	11.5	16.6	21.4	26	30.7
293.15 K	9.6	15.3	20.6	25.5	30.3	35.3
298.15 K	11.6	18.1	23.9	29.3	34.6	40.1
303.15 K	13.8	21	27.5	33.4	39.2	45.3
308.15 K	16	24.1	31.1	37.6	43.8	50.5
313.15 K	18.6	27.5	35.2	42.1	48.7	55.9
318.15 K	21.6	31.2	39.4	46.6	53.5	61.2
323.15 K	24.4	35	43.7	51.3	58.6	66.8
328.15 K	27.9	39	48.1	55.9	63.4	72

Cl.N=C(N)N + CN(C)C=O + CCCO
solubility (g/100 g solution)
Settings	278.15 K	283.15 K	288.15 K	293.15 K	298.15 K	303.15 K	308.15 K	313.15 K	318.15 K	323.15 K
x2 = 0.08378	10.4	11.5	12.6	13.4	14.4	15.6	16.5	17.8	18.9	20.5
x2 = 0.2607	20.4	21.6	22.3	23	23.9	24.8	25.6	26.3	27.2	28.1
x2 = 0.4515	27.6	28.9	29.7	30.7	31.8	32.8	33.4	34.5	35.3	36.7
x2 = 0.657	35.6	37.3	38.3	39.1	40.5	41.6	42.5	43.5	44.9	46.1
x2 = 0.8809	43.5	45.6	46.6	47.1	48.8	49.9	50.7	52.4	53.7	54

O=C(O)CC(O)C(=O)O (stereo unspecified) + C1CCOC1 + CC#N
solubility (g/100 g solution)
Settings	278.15 K	283.15 K	288.15 K	293.15 K	298.15 K	303.15 K	308.15 K	313.15 K	318.15 K	323.15 K
x2 = 0.1246	19.5	21.2	23.2	25.3	26.9	29.2	31.6	34.1	36.6	39.6
x2 = 0.1961	27.1	28.6	30.5	32.5	34.7	37.1	39.2	41.7	44.3	47
x2 = 0.2751	29.8	32	34	36	38	40.2	42.3	45	47.2	49.9
x2 = 0.3628	33.2	34.9	36.9	38.9	40.9	43	45.1	47.7	49.9	52.5
x2 = 0.4606	34.6	36	37.8	39.7	41.5	43.5	45.9	48.1	50.5	53.4
x2 = 0.5705	35.7	37.3	39.1	41.1	43.2	45.5	47.8	50.2	52.9	55.6
x2 = 0.6949	37.8	39	40.6	42.3	44.3	46	48.3	50.3	52.7	55.5

O=c1ccc(-c2ccccc2)n[nH]1 + CS(C)=O + O
solubility (g/100 g solution)
Settings	x2 = 0.02501	x2 = 0.05457	x2 = 0.09003	x2 = 0.1334	x2 = 0.1876	x2 = 0.2572	x2 = 0.3501	x2 = 0.4801	x2 = 0.6751
298.15 K	0.016	0.0442	0.124	0.333	0.899	2.36	6.21	14.3	30.9
303.15 K	0.0188	0.051	0.14	0.376	1.01	2.59	6.53	15.1	32.4
308.15 K	0.0223	0.0609	0.166	0.428	1.12	2.85	7.05	16.1	33.6
313.15 K	0.0267	0.0709	0.188	0.487	1.26	3.14	7.63	17.1	35.2
318.15 K	0.0334	0.0872	0.224	0.571	1.45	3.54	8.41	18.3	36.8
